Assay [1] relates to Ba/F3 + IL-3 (BCR-ABL-negative parental cells). Kind of assay: Growth inhibition, viable cells by trypan blue dye exclusion. The assay is classed as cell-based, murine. As to conditions: Mus musculus, BaF3, concentration reducing number of viable cells by 50%, read-out: MEAN IC50 ± S.D.
Assay [2] deals with Ba/F3 P210 WT. Described as above. The class given is cell-based, murine. As to conditions: Mus musculus, BaF3, concentration reducing number of viable cells by 50%, read-out: MEAN IC50 ± S.D.
Assay [3] deals with Ba/F3 P210 T315I. Described as above. The following applies: Mus musculus, BaF3, concentration reducing number of viable cells by 50%, read-out: MEAN IC50 ± S.D. The assay is classed as cell-based, murine.
Assay [4] concerns Ba/F3 P210 E255K. The assay is described as above. The class given is cell-based, murine. As to conditions: Mus musculus, BaF3, concentration reducing number of viable cells by 50%, read-out: MEAN IC50 ± S.D.
The subject of assay [5] is wild-type BCR-ABL-expressing Ba/F3 cells. Kind of assay: CRKL phosphorylation, western blot and densitometry. The class given is cell-based, murine. As to conditions: 24 hours.
The subject of assay [6] is T315I BCR-ABL-expressing Ba/F3 cells. Described as above. The class given is cell-based, murine. The following applies: 24 hours.
For assay [7], the system named is E255K BCR-ABL-expressing Ba/F3 cells. The description is as above. The assay is classed as cell-based, murine. As to conditions: 24 hours.
The test system of assay [8] is wild-type BCR-ABL. Kind of assay: BCR-ABL protein degradation, anti-ABL western blot in Ba/F3 cells. The following applies: 24 hours. A general note: Immunoblotting shows a protein as a band on a membrane.
The subject of assay [9] is T315I BCR-ABL. Described as above. As to conditions: 24 hours.
In assay [10] the test system is E255K BCR-ABL. The description is as above. The following applies: 24 hours.
Assay [11] has as its system v-Src versus c-Src. The following applies: cited from earlier work.

SMILES strings stand for the structures.

As to `C=CCNC1=C2C[C@@H](C)C[C@H](OC)[C@H](O)[C@@H](C)/C=C(\C)[C@H](OC(N)=O)[C@@H](OC)/C=C\C=C(/C)C(=O)NC(=CC1=O)C2=O` [17-AAG, 17-allylaminogeldanamycin], the half-maximal inhibitory concentration (IC50) (usually the concentration that inhibits the measured activity by half) in [1] was found to be 12.4 ± 0.3 µM; in [2], 5.2 ± 2.4 µM; in [3], 2.3 ± 0.4 µM; in assay [4] it was 1 ± 0.2 µM. Also, the “concentration at which significant changes in CRKL phosphorylation were observed” value in assay [5] amounted to 5.0 µM. In addition, the “concentration at which CRKL phosphorylation was significantly inhibited” value in assay [6] and in [7] was 0.5 µM each time. Also, the “concentration at which BCR-ABL protein levels decrease” value in assay [8] is 0.5 to 1.0 µM; in assay [9], 0.5 µM; in assay [10], 0.5 µM. In addition, the “concentration at which virtually no BCR-ABL protein was detectable” value in assay [9] and in assay [10] was 1.0 µM each time.

As to `COC1=C2C[C@@H](C)C[C@H](OC)[C@H](O)[C@@H](C)/C=C(\C)[C@H](OC(N)=O)[C@@H](OC)/C=C\C=C(/C)C(=O)NC(=CC1=O)C2=O` [GA, Geldanamycin], the half-inhibitory concentration (IC50) was 27.3 ± 14.1 µM in [1], 4.9 ± 1.6 µM in assay [2], 1.8 ± 2.1 µM in [3] and 2.6 ± 2.4 µM in assay [4]. The results for the “concentration at which BCR-ABL protein levels decrease” value in assay [8], in [9] and in assay [10] were 1.0 µM, 0.5 µM and 0.5 µM, respectively.

In the case of `Cc1ccc(-c2nn(C(C)(C)C)c3ncnc(N)c23)cc1` [PP1], in assay [11], the “fold resistance of v-Src versus c-Src to kinase inhibition” value is listed as “approximately 50 fold”.

The record behind these values is patent US8586291B2 (priority 2001, dated 2013).
